In patent US8404643B2, “Metastin derivatives and use thereof” (priority 2005, dated 2013):
Square brackets hold non-standard residues; d marks the D form. Peptide text beside a SMILES is read from it. * marks the point of attachment. Phe(4-Cl) = N[C@@H](Cc1ccc(Cl)cc1)C(=O)O; Phe(3-F) = N[C@@H](Cc1cccc(F)c1)C(=O)O; Desaminotyrosyl = O=C(CCc1ccc(O)cc1)*; Phe(2-F) = N[C@@H](Cc1ccccc1F)C(=O)O; Arg(Me) = CNC(=N)NCCC[C@H](N)C(=O)O; Dap(CONH2) = NC(=O)NC[C@H](N)C(=O)O; Hyp = O=C(O)[C@@H]1C[C@@H](O)CN1; Pip(4-aza) = O=C(O)[C@@H]1CNCCN1; d4Pal = N[C@H](Cc1ccncc1)C(=O)O; Decanoyl = CCCCCCCCCC(=O)*; Orn = NCCC[C@H](N)C(=O)O; azaGly = NNC(=O)O

Each compound was assayed against T1, hOT7T175 (Homo sapiens, UniProt Q969F8) (assay: Assay for intracellular Ca ion level-increasing activity using FLIPR). Settings: hOT7T175/CHO cells, relative to Metastin (1-54).
T1 construct: expressed in transfected cells
Format: cell-based
Description: In accordance with the method described in JPA 2000-312590, the intracellular Ca ion level-increasing activity was measured using FLIPR.
The stable expression cell line hOT7T175 was obtained by transfection of the expression plasmid pAK-rOT175 for animal cells into CHO/dhfr^− cells, using CellPhect Transfection Kit (Amersham Pharmacia Biotech, Inc.). First, 240 μL of Buffer A (attached to CellPhect Transfection Kit) was added to 9.6 μg of plasmid DNA dissolved in 240 μL of distilled water followed by stirring. After the mixture was settled for 10 minutes, 480 μL of Buffer B (attached to CellPhect Transfection Kit) was added to the mixture, which was vigorously stirred to form liposomes containing the DNA. Then, 4×10^5 CHO/dhfr^− cells (obtained from ATCC) were inoculated on a 60 mm Petri dish. After culturing the cells in Ham's F-12 medium (Nissui Seiyaku Co., Ltd.) supplemented with 10% fetal bovine serum (BIO WHITTAKER, Inc.) at 37° C. for 2 days in 5% carbon dioxide gas, […] of the liposomes were dropwise added to the cells on the Petri dish. After culturing the cells at 37° C. for 6 hours in 5% carbon dioxide gas, the cells were washed twice with serum-free Ham's F-12 medium and 3 mL of 15% glycerol was added to the cells on the Petri dish followed by treatment for 2 minutes. The cells were again washed twice with serum-free Ham's F-12 medium followed by incubation in Ham's F-12 medium supplemented with 10% fetal bovine serum at 37° C. for 15 hours in 5% carbon dioxide gas. The cells were dispersed by trypsin treatment to recover from the Petri dish. The recovered cells were inoculated on a 6-well plate in 1.25×10^4 cells/well and incubation was initiated at 37° C. in Dulbecco's modified Eagle medium (DMEM) medium (Nissui Seiyaku Co., Ltd.) containing 10% dialyzed fetal bovine serum (JRH BIOSCIENCES, Inc.) in 5% carbon dioxide gas. The plasmid-transfected CHO transformants grew in the medium but the non-transfected cells gradually died, accordingly the medium was exchanged on Days 1 and 2 after the initiation of incubation to remove the cells died. Approximately 20 colonies of the CHO transformants that kept growing on Days 8 to 10 after the incubation were isolated. From the cells in these colonies, cells showing high reactivity with the ligand peptide metastin (hereinafter merely referred to as hOT7T175/CHO) were selected to provide for the following experiment.
The intracellular Ca ion level-increasing activity of the synthetic peptide in hOT7T175/CHO was determined using FLIPR (Molecular Devices, Inc.).
hOT7T175/CHO was subcultured in DMEM supplemented with 10% dialyzed fetal bovine serum (hereinafter abbreviated as dFBS) (hereinafter referred to as 10% dFBS/DMEM) and provided for the experiment. The hOT7T175/CHO was suspended in 10% dFBS-DMEM in 15×10^4 cells/ml. The suspension was inoculated on a 96-well plate for FLIPR (Black Plate Clear Bottom, Coster, Inc.) at 200 μl/well (3.0×10^4 cells/200 μL/well), followed by incubation at 37° C. overnight in a 5% CO2 incubator (hereinafter referred to as the cell plate). Then, 21 ml of HANKS/HBSS (9.8 g of HANKS, 0.35 g of sodium hydrogencarbonate, 20 ml of 1M HEPES; after adjusting the pH to 7.4 with 1N sodium hydroxide, the mixture was sterilized by filtration), 210 μl of 250 mM Probenecid and 210 μl of fetal bovine serum (FBS) (HANKS/HBSS-Probenecid-FBS) were mixed.
Furthermore, 2 vials of Fluo3-AM (50 μg/vial) were dissolved in 21 μL of dimethylsulfoxide and 21 μL of 20% Pluronic acid. The resulting solution was added to and mixed with 10 ml of the HANKS/HBSS-Probenecid-FBS described above. After the culture medium was removed, the mixture was dispensed onto the cell plate in 100 μl each/well, followed by incubation at 37° C. for an hour in a 5% CO2 incubator (pigment loading). The peptide was dissolved in dimethylsulfoxide in 1×10^−3 M. The peptide solution was diluted with HANKS/HBSS containing 2.5 mM Probenecid, 0.2% BSA and 0.1% CHAPS. […]

T1 sequence (Q969F8 whole entry L364H): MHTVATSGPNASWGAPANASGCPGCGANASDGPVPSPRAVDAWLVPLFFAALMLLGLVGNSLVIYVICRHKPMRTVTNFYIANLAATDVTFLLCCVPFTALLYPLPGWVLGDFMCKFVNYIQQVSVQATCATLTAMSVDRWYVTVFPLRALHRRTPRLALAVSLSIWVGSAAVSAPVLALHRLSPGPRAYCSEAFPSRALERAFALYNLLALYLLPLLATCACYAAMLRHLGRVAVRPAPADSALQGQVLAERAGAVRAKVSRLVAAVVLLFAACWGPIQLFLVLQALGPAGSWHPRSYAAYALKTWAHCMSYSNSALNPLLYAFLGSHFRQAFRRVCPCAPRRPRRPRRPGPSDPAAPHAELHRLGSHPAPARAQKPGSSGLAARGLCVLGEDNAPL

SMILES	Specific Activity: intracellular Ca ion level-increasing activity [specific activity to Metastin (1-54)]
CNC(=N)NCCC[C@H](NC(=O)[C@H](CC(C)C)NC(=O)NNC(=O)[C@H](Cc1ccccc1)NC(=O)[C@@H](NC(=O)[C@H](CC(N)=O)NC(=O)[C@@H](CC(=O)O)NC(=O)[C@@H](Cc1ccc(O)cc1)NC(C)=O)[C@@H](C)O)C(=O)N[C@@H](Cc1c[nH]c2ccccc12)C(N)=O [Compound No. 735, Ac-D-Tyr-D-Asp-Asn-Thr-Phe-AzaGly-Leu-Arg(Me)-Trp-NH2] (Ac-[dY][dD]NTF[azaGly]L[Arg(Me)]W-NH2)	3.4
CNC(=N)NCCC[C@H](NC(=O)[C@H](CC(C)C)NC(=O)NNC(=O)[C@H](Cc1cccc(F)c1)NC(=O)[C@@H](NC(=O)[C@H](CC(N)=O)NC(=O)[C@H](Cc1c[nH]c2ccccc12)NC(=O)[C@@H](Cc1ccc(O)cc1)NC(C)=O)[C@@H](C)O)C(=O)N[C@@H](Cc1c[nH]c2ccccc12)C(N)=O [Compound No. 766, Ac-D-Tyr-Trp-Asn-Thr-Phe(3F)-AzaGly-Leu-Arg(Me)-Trp-NH2] (Ac-[dY]WNT[Phe(3-F)][azaGly]L[Arg(Me)]W-NH2)	0.2
CNC(=N)NCCC[C@H](NC(=O)[C@H](CC(C)C)NC(=O)NNC(=O)[C@H](Cc1ccccc1)NC(=O)[C@@H](NC(=O)[C@H](CC(N)=O)NC(=O)C(CC1CCNCC1)NC(=O)[C@@H](Cc1ccc(O)cc1)NC(C)=O)[C@@H](C)O)C(=O)N[C@@H](Cc1c[nH]c2ccccc12)C(N)=O (mixture of isomers) [Compound No. 774, Ac-D-Tyr-DL-Ala(Pip)-Asn-Thr-Phe-AzaGly-Leu-Arg(Me)-Trp-NH2]	2.0
CCCCCCCCCC(=O)N[C@@H](CC(N)=O)C(=O)N[C@H](C(=O)N[C@@H](Cc1ccccc1)C(=O)NNC(=O)N[C@@H](CC(C)C)C(=O)N[C@@H](CCCNC(=N)NC)C(=O)N[C@@H](Cc1c[nH]c2ccccc12)C(N)=O)[C@@H](C)O [Compound No. 710, Decanoyl-Asn-Thr-Phe-AzaGly-Leu-Arg(Me)-Trp-NH2] (Decanoyl-NTF[azaGly]L[Arg(Me)]W-NH2)	7.2
CNC(=N)NCCC[C@H](NC(=O)[C@H](CC(C)C)NC(=O)NNC(=O)[C@H](Cc1ccc(Cl)cc1)NC(=O)[C@@H](NC(=O)[C@H](CC(N)=O)NC(=O)[C@H](CCCCN)NC(=O)[C@@H](Cc1ccc(O)cc1)NC(C)=O)[C@@H](C)O)C(=O)N[C@@H](Cc1c[nH]c2ccccc12)C(N)=O [Compound No. 758, Ac-D-Tyr-Lys-Asn-Thr-Phe(4Cl)-AzaGly-Leu-Arg(Me)-Trp-NH2] (Ac-[dY]KNT[Phe(4-Cl)][azaGly]L[Arg(Me)]W-NH2)	1.8
CNC(=N)NCCC[C@H](NC(=O)[C@H](CC(C)C)NC(=O)NNC(=O)[C@H](Cc1ccccc1)NC(=O)[C@@H](NC(=O)[C@H](CC(N)=O)NC(=O)[C@@H]1CNCCN1C(=O)[C@@H](Cc1ccc(O)cc1)NC(C)=O)[C@@H](C)O)C(=O)N[C@@H](Cc1c[nH]c2ccccc12)C(N)=O [Compound No. 760, Ac-D-Tyr-Pzc(2)-Asn-Thr-Phe-AzaGly-Leu-Arg(Me)-Trp-NH2] (Ac-[dY][Pip(4-aza)]NTF[azaGly]L[Arg(Me)]W-NH2)	1.7
CNC(=N)NCCC[C@H](NC(=O)[C@H](CC(C)C)NC(=O)NNC(=O)[C@H](Cc1ccccc1)NC(=O)[C@@H](NC(=O)[C@H](CC(N)=O)NC(=O)[C@H](CCCN)NC(=O)[C@@H](Cc1ccc(O)cc1)NC(C)=O)[C@@H](C)O)C(=O)N[C@@H](Cc1c[nH]c2ccccc12)C(N)=O [Compound No. 771, Ac-D-Tyr-Orn-Asn-Thr-Phe-AzaGly-Leu-Arg(Me)-Trp-NH2] (Ac-[dY][Orn]NTF[azaGly]L[Arg(Me)]W-NH2)	1.9
CNC(=N)NCCC[C@H](NC(=O)[C@H](CC(C)C)NC(=O)NNC(=O)[C@H](Cc1ccccc1)NC(=O)[C@@H](NC(=O)[C@H](CNC(N)=O)NC(=O)[C@@H](Cc1ccncc1)NC(=O)[C@@H](Cc1ccc(O)cc1)NC(C)=O)[C@@H](C)O)C(=O)N[C@@H](Cc1c[nH]c2ccccc12)C(N)=O [Compound No. 718, Ac-D-Tyr-D-Pya(4)-Alb-Thr-Phe-AzaGly-Leu-Arg(Me)-Trp-NH2] (Ac-[dY][d4Pal][Dap(CONH2)]TF[azaGly]L[Arg(Me)]W-NH2)	2.6
CNC(=N)NCCC[C@H](NC(=O)[C@H](CC(C)C)NC(=O)NNC(=O)[C@H](Cc1ccccc1F)NC(=O)[C@@H](NC(=O)[C@H](CC(N)=O)NC(=O)[C@@H](Cc1c[nH]c2ccccc12)NC(=O)[C@@H](Cc1ccc(O)cc1)NC(C)=O)[C@@H](C)O)C(=O)N[C@@H](Cc1c[nH]c2ccccc12)C(N)=O [Compound No. 749, Ac-D-Tyr-D-Trp-Asn-Thr-Phe(2F)-AzaGly-Leu-Arg(Me)-Trp-NH2] (Ac-[dY][dW]NT[Phe(2-F)][azaGly]L[Arg(Me)]W-NH2)	0.5
CNC(=N)NCCC[C@H](NC(=O)[C@H](CC(C)C)NC(=O)NNC(=O)[C@H](Cc1ccc(Cl)cc1)NC(=O)[C@@H](NC(=O)[C@H](CC(N)=O)NC(=O)CNC(=O)[C@@H](Cc1ccc(O)cc1)NC(C)=O)[C@@H](C)O)C(=O)N[C@@H](Cc1c[nH]c2ccccc12)C(N)=O [Compound No. 769, Ac-D-Tyr-Gly-Asn-Thr-Phe(4Cl)-AzaGly-Leu-Arg(Me)-Trp-NH2] (Ac-[dY]GNT[Phe(4-Cl)][azaGly]L[Arg(Me)]W-NH2)	1.5
CNC(=N)NCCC[C@H](NC(=O)[C@H](CC(C)C)NC(=O)NNC(=O)[C@H](Cc1ccccc1)NC(=O)[C@@H](NC(=O)[C@H](Cc1cnc[nH]1)NC(=O)[C@@H]1C[C@@H](O)CN1C(=O)[C@@H](Cc1ccc(O)cc1)NC(C)=O)[C@@H](C)O)C(=O)N[C@@H](Cc1c[nH]c2ccccc12)C(N)=O [Compound No. 816, Ac-D-Tyr-Hyp-His-Thr-Phe-AzaGly-Leu-Arg(Me)-Trp-NH2] (Ac-[dY][Hyp]HTF[azaGly]L[Arg(Me)]W-NH2)	1.1
CNC(=N)NCCC[C@H](NC(=O)[C@H](CC(C)C)NC(=O)NNC(=O)[C@H](Cc1ccccc1)NC(=O)[C@@H](NC(=O)[C@H](CC(N)=O)NC(=O)[C@@H]1C[C@@H](O)CN1C(=O)CCc1ccc(O)cc1)[C@@H](C)O)C(=O)N[C@@H](Cc1c[nH]c2ccccc12)C(N)=O [Compound No. 888, 3-(p-Hydroxyphenyl)propionyl-Hyp-Asn-Thr-Phe-AzaGly-Leu-Arg(Me)-Trp-NH2] (Desaminotyrosyl-[Hyp]NTF[azaGly]L[Arg(Me)]W-NH2)	1.1
CNC(=N)NCCC[C@H](NC(=O)[C@H](CC(C)C)NC(=O)NNC(=O)[C@H](Cc1cccc(F)c1)NC(=O)[C@@H](NC(=O)[C@H](CC(N)=O)NC(=O)[C@@H](Cc1c[nH]c2ccccc12)NC(=O)[C@@H](Cc1ccc(O)cc1)NC(C)=O)[C@@H](C)O)C(=O)N[C@@H](Cc1c[nH]c2ccccc12)C(N)=O [Compound No. 750, Ac-D-Tyr-D-Trp-Asn-Thr-Phe(3F)-AzaGly-Leu-Arg(Me)-Trp-NH2] (Ac-[dY][dW]NT[Phe(3-F)][azaGly]L[Arg(Me)]W-NH2)	1.0
